Assays:
[1] = tested on: Caco-2 and SkMel-28 cells; assay: Cellular uptake of ECG, TMECG and QM; format: in vitro ADME, human; conditions: 50 μM catechins
Protocol: Cellular uptake was determined by the difference between the initial concentration of catechin and the calculated at specific times in the cellular medium, and expressed as a percentage of catechin at zero time. The values presented are the mean percentage determined from five independent experiments±SD.
For cellular uptake experiments Caco-2 and SkMel-28 cells were grown until reaching 90% confluence. Then, 20 ml of cellular medium containing 50 μM catechins and 0.2 mM ascorbic acid was added and incubated for 60 h in a CO2 incubator. At specified times 1 ml-aliquots were taken and frozen in liquid N2 until the catechin concentrations were determined by HPLC. Catechins were identified by their characteristic elution times and their concentration calculated with respect to calibration curves of known concentrations of catechins.

FRα mRNA = assay: FRα expression in SkMel-28 (real-time PCR, RT-PCR); format: cell-based, human; conditions: SkMel-28, 50 μM
Protocol: PolyA+ mRNA from human adult skin was purchased from Invitrogen. SkMel-28 and HEM polyA+ mRNA was extracted from 5×10^6 cells using the Illustra Quick Prep Micro mRNA purification kit (GE Healthcare). mRNA (200 ng) was used to synthesize cDNA using SuperScript First-Strand Synthesis System (Invitrogen). PCR amplification of 2 μL of the cDNA strand generated was carried out in a total volume of 50 μL using an Eppendorf Mastercycler Thermal Cycler. Samples were amplified by 40 cycles at 95° C. (1 min), 62° C. (1 min) and 72° C. (1 min). The amplified PCR products were subjected to electrophoresis in 3% agarose gel and stained with ethidium bromide.
Primers were designer using Primer Express version 2.0 software (Applied Biosystems, Foster City, Calif.) and synthesized by Invitrogen. […] Amplification of target gene sequences were compared against serial dilutions of know quantities of their purified cDNA fragments, and normalized to the abundance of the house-keeping gene β-actin.

Caspase-3 = Caspase-3 colorimetric activity assay; format: cell-based, human; conditions: SkMel-28, 50 μM, 7 days
Protocol: Cells were treated for 7 days with 50 μM TMECG. Caspase-3 activity was determined in the absence or the presence of […]. The results are expressed as the mean±SD of three cultures.
Caspase-3 activity in the SkMel-28 cells was measured using the caspase-3 colorimetric activity assay kit (Sigma). Briefly, the cells were washed with cold PBS and lysed with cell lysis buffer included in the kit. The cell lysates were centrifuged (10,000 g for 5 min at 4° C.), and the supernatants were collected. Equal amounts of protein (100 μg), 30 μg of colorimetric caspase-3 substrate (acetyl-Asp-Glu-Val-Asp p-Nitroanilide; Ac-[…]-pNA) and assay buffer were added to each reaction mix, which were then incubated for 4 h at 37° C. Caspase-3 activity was determined by measuring the absorbance at 405 nm. One unit of caspase-3 activity was expressed as 1 pmol of pNA formed per hour, and its specific activity was that unit divided by micrograms of protein. Caspase-3 inhibitor ([…]) was used as negative control.

B16 melanoma = assay: Mouse tumor model, B16 melanoma, topical TMECG cream; format: in vivo
Protocol: Female C57/B16 mice 6-8 weeks old were obtained from the Animal Research Service (University of Murcia, Spain) and were housed in our animal facilities. All animal work was performed in accordance with the government guidelines. The B16 melanoma cell line (ATCC) was culture in RPMI 1640 medium under standard tissue culture conditions. Mice were shaved on the back using a long-hair cutter and 7.5×10^5 B16 melanoma cells resuspended in 25 μl sterile PBS were injected intradermally on the back. Animals with tumors more than 8 mm in diameter on day 8 or nonvisible tumor growth by day 12 were excluded. Groups consisting of 20 mice per group were differently treated starting at day 8 after tumor cell injection. For TMECG treatments this compound was uniformly mixed in a cosmetic base cream (Thae, Murcia, Spain). Topical treatment of TMECG was given every day at a dose of ≈1 mg/cm2 skin area. Control mice (non-TMECG treated) were topically treated with the some amount of cream alone. Tumor growth and body weight were monitored every second day. A postmortem with histological examination of the lung, liver and brain was performed in all animals. Tissues were fixed in 10% formaldehyde, dehydrated and embedded in paraffin wax. Sections (4 μm) were stained with eosin and hematoxylin. Analyses of gluconic acid content in lungs were carried out as described elsewhere (Pradeep and Kuttan, 2002).

SkMel-28 cells = assay: MTT cell proliferation assay, SkMel-28; format: cell-based, human
Protocol: Four human cancer cells lines (SkMel-28, MCF7, H1264 and Caco-2) were obtained from the American Type Tissue Culture Collection (ATCC) and were maintained in appropriate culture mediums supplemented with 10% fetal calf serum (FCS) and antibiotics, under standard tissue culture conditions (e.g. modified Eagle's medium (MEM) containing 1 mM sodium pyruvate and 10% fetal bovine serum (FES) under 5% CO2/95% air atmosphere.). Cell injury was evaluated by a colorimetric assay for mitochondrial function using the 3-(4,5-dimethylthiazolyl-2)-2,5-diphenyltetrazolium bromide (MTT) cell proliferation assay. For this assay cells were plated in a 96-well plate at a density of 1000 cells/well and grown until they reached 50-60% confluence. Human epidermal melanocytes (HeM) were supplied by Gentaur and were cultured in HAM-F10 medium supplemented with 10% FCS, antibiotics and the human melanocyte growth supplement (Gentaur).
Cell injury was evaluated by a colorimetric assay for mitochondrial function using the 3-(4,5-dimethylthiazolyl-2)-2,5-diphenyltetrazolium bromide (MTT) cell proliferation assay. For this assay cells were plated in a 96-well plate at a density of 1000 cells/well and grown until they reached 30% confluence. Co-treatments of SkMel-28 cells with TMECG and other reagents were carried out by supplementing medium cultures with S-adenosylmethionine (SAM), adenosine or dipyridamole (all from Sigma).

[2] = treated for 21 days, post-mortem

With `COc1cc(C(=O)O[C@@H]2Cc3c(O)cc(O)cc3O[C@@H]2c2ccc(O)c(O)c2)cc(OC)c1OC` [TMECG, 3-O-(3,4,5-trimethoxybenzoyl)-(−)-epicatechin] the “cellular uptake / membrane transport” value [1] was “greater than the uptake of its related natural catechin, ECG”, the “mature FRα mRNA (RT-PCR)” value (FRα mRNA; 3 days) was “partially restored the levels of mature FRα mRNA” and the “FRα expression (exon 5 region, real-time PCR)” value (FRα mRNA; 5 days of treatment) was “no apparent effect on its expression”. For the same compound, the caspase-3 activity (Caspase-3) was “significantly higher caspase-3 activity”, the tumor growth (B16 melanoma; topical, ≈1 mg/cm2 skin area every day) was “significantly reduced” and the survival time (B16 melanoma; topical, ≈1 mg/cm2 skin area every day, female C57/B16 mice) was “longer survival time”. The “liver and brain metastasis” value (B16 melanoma; [2]) was “no metastasis in these organs was detected”, the lung metastasis (B16 melanoma; [2]) was “drastically reduced lung metastasis” and the “effect of leucovorin co-treatment on growth inhibition” value (SkMel-28 cells; 100 μM leucovorin, MTX 1 μM or TMECG 50 μM, 3 days) was “did not”. For the same compound, the inhibition at 50 µM (SkMel-28 cells; Homo sapiens, SK-MEL-28, 120 h, 50 μM, five days of treatment, read-out: growth of SkMel-28 inhibited) was > 60%, the IC50 (SkMel-28 cells; Homo sapiens, SK-MEL-28, 144 h, SkMel-28, 6 days of treatment, read-out: IC50 (at 6 days)) was 2900 nM and the “effect of natural and synthetic catechins on SkMel-28 growth” value (SkMel-28 cells; SkMel-28) was “highly inhibited”. The “DNA fragmentation (apoptosis)” value (SkMel-28 cells; SkMel-28, 50 μM, 7 days) was “visible after treatment” and the “effect of sulfasalazine (RFC inhibitor) on antiproliferative action” value (SkMel-28 cells; sulfasalazine 0.5 mM, MTX 0.2 μM or TMECG 10 μM, 3 days) was “enhancing TMECG antiproliferative activity”.
